Key:
free testosterone = experiment: Human clinical trial: free testosterone concentrations in healthy male volunteers; assay type: in vivo
Text: Key Inclusion Criteria: Male, aged 65 years or above showing no clinically significant abnormalities in routine haematological and biochemical tests and having endocrinology and prostate specific antigen (PSA) results within normal limits. Key Exclusion Criteria: Previous inclusion in a clinical trial using CASODEXTM; concurrent treatment with any drugs with the exception of paracetomol; history or presence of any testicular abnormality; history or presence of gastrointestinal, hepatic or renal disease, or other condition known to interfere with the absorption, distribution, metabolism or excretion of drugs; a clinically significant illness within 2 weeks of trial commencement; definite or suspected personal or family history of significant adverse drug reactions or any hypersensitivity to CASODEXTM or […]; treatment within the previous 3 months with any drugs known to have a well-defined potential for hepatotoxicity or hepatic interaction. Dosage: The CASODEXTM was administered daily at a dose of 150 mg and the […] was administered daily at a dose of 20 mg. All treatments were in tablet form and taken once daily. Daily treatment with CASODEXTM plus […] was for 6 weeks, this period being selected as the minimum time to attain steady-state plasma concentrations for the drugs. Another set of volunteers were administered CASODEXTM alone at a daily dose of 150 mg for 4 weeks. All treatments were in tablet form and taken once daily. Key Assessment: Free testosterone concentrations were measured during the course of the trial.

testosterone = details: cited from earlier work
testosterone, LH = details: cited from earlier work

Compound	Free testosterone, ratio to Day 1 (free testosterone; Day 29, CASODEX alone 150 mg daily for 4 weeks)	Free testosterone concentration, gmean (free testosterone; Day 29, CASODEX alone 150 mg daily for 4 weeks, n=7, pre-dose Day 1 baseline gmean 0.048)	Increase in mean free testosterone concentration (free testosterone; by the end of the treatment period (4 weeks), CASODEX alone 150 mg daily)	Increase in mean free testosterone concentration (testosterone; after 24 weeks of daily 150 mg CASODEX alone, prostate cancer (Verhelst et al 1994))	Change of basal level of total testosterone (testosterone; single agent therapy in humans (Blackledge et al 1996))	Effect on mean serum testosterone, oestradiol, LH levels, LH pulse frequency and amplitude (testosterone, LH; 13 normal men, tamoxifen for 6 weeks (Spijkstra et al 1988))	Effect on serum testosterone levels (testosterone, LH; tamoxifen administration to men (Lewis-Jones et al 1987))	Effect on testosterone and LH (testosterone, LH; tamoxifen intake in adult men (Comhaire et al 1995))	Effect on basal LH, FSH and testosterone levels (testosterone, LH; three months' treatment, normogonadotrophic oligozoospermic men (van Bergeijk et al 1986))
CC(O)(CS(=O)(=O)c1ccc(F)cc1)C(=O)Nc1ccc(C#N)c(C(F)(F)F)c1 (stereo not drawn) [CASODEX™, 4′-cyano-α′,α′,α′-trifluoro-3-(4-fluorophenylsulphonyl)-2-hydroxy-2-methylpropiono-m-toluidide]	1.58	0.076 nmol/L	58%	57%	approximate doubling				
CC/C(=C(\c1ccccc1)c1ccc(OCCN(C)C)cc1)c1ccccc1 [tamoxifen, (Z)-2-[p-(1,2-diphenylbut-1-enyl)phenoxy]ethyldimethylamine]						An increase	marked elevation	increase testosterone and LH	stimulated basal LH, FSH and testosterone levels
